Key:
[1] = test system: Rift Valley fever virus; experiment: Antiviral activity against Rift Valley fever virus MP-12 infected in African green monkey Vero 76 cells by visual analysis; format: functional, organism-based; conditions: MP-12, Vero 76
[2] = Cytotoxicity against African green monkey Vero 76 cells infected with Rift Valley fever virus MP-12 by visual analysis; format: toxicity, cell-based; conditions: chlorocebus sabaeus
[3] = (§1) Selectivity index, ratio of CC50 for cytotoxicity against African green monkey Vero 76 cells infected with Rift Valley fever virus MP-12 by visual analysis to EC50 for antiviral activity against Rift Valley fever virus MP-12 infected in African green monkey Vero 76 cells by visual analysis; format: toxicity, cell-based; conditions: read-out: Ratio CC50/EC50
[4] = test system: Rift Valley fever virus; experiment: Antiviral activity against Rift Valley fever virus MP-12 infected in African green monkey Vero 76 cells by neutral red dye based analysis; format: functional, organism-based; conditions: MP-12, Vero 76
[5] = Cytotoxicity against African green monkey Vero 76 cells infected with Rift Valley fever virus MP-12 by neutral red dye based analysis; format: toxicity, cell-based; conditions: chlorocebus sabaeus
[6] = as §1, with “neutral red dye based” for “visual”; format: toxicity, cell-based; conditions: read-out: Ratio CC50/EC50
[7] = test system: Tacaribe virus; experiment: Antiviral activity against Tacaribe virus TRVL11573 infected in African green monkey Vero cells by visual analysis; format: functional, organism-based; conditions: Mammarenavirus tacaribeense
[8] = Cytotoxicity against African green monkey Vero cells infected with Tacaribe virus TRVL11573 by visual analysis; format: toxicity, cell-based; conditions: chlorocebus sabaeus
[9] = (§2) Selectivity index, ratio of CC50 for cytotoxicity against African green monkey Vero cells infected with Tacaribe virus TRVL11573 by visual analysis to EC50 for antiviral activity against Tacaribe virus TRVL11573 infected in African green monkey Vero cells by visual analysis; format: toxicity, cell-based; conditions: read-out: Ratio CC50/EC50
[10] = test system: Tacaribe virus; experiment: Antiviral activity against Tacaribe virus TRVL11573 infected in African green monkey Vero cells by neutral red dye based analysis; format: functional, organism-based; conditions: Mammarenavirus tacaribeense
[11] = Cytotoxicity against African green monkey Vero cells infected with Tacaribe virus TRVL11573 by neutral red dye based analysis; format: toxicity, cell-based; conditions: chlorocebus sabaeus
[12] = as §2, with “neutral red dye based” for “visual”; format: toxicity, cell-based; conditions: read-out: Ratio CC50/EC50
[13] = test system: Pichinde virus; experiment: Antiviral activity against Pichinde virus AN 4763 infected in African green monkey Vero cells by visual analysis; format: functional, organism-based; conditions: AN 4763, Vero
[14] = Cytotoxicity against African green monkey Vero cells infected in Pichinde virus AN 4763 by visual analysis; format: toxicity, cell-based; conditions: chlorocebus sabaeus, Vero cells infected with Pichinde virus AN 4763
[15] = Selectivity index, ratio of CC50 for cytotoxicity against African green monkey Vero cells infected with Pichinde virus AN 4763 by visual analysis to EC50 for antiviral activity against Pichinde virus AN 4763 infected in African green monkey Vero cells by visual analysis; format: toxicity, cell-based; conditions: read-out: Ratio CC50/EC50
[16] = test system: Pichinde virus; experiment: Antiviral activity against Pichinde virus AN 4763 infected in African green monkey Vero cells by neutral red dye based analysis; format: functional, organism-based; conditions: AN 4763, Vero
[17] = Cytotoxicity against African green monkey Vero cells infected in Pichinde virus AN 4763 by neutral red dye based analysis; format: toxicity, cell-based; conditions: chlorocebus sabaeus, Vero cells infected with Pichinde virus AN 4763
[18] = Selectivity index, ratio of CC50 for cytotoxicity against African green monkey Vero cells infected with Pichinde virus AN 4763 by neutral red dye based analysis to EC50 for antiviral activity against Pichinde virus AN 4763 infected in African green monkey Vero cells by neutral red dye based analysis; format: toxicity, cell-based; conditions: read-out: Ratio CC50/EC50
[19] = test system: Influenza A virus; experiment: Antiviral activity against influenza A virus California/7/2009(H1N1) infected in MDCK cells; format: functional, organism-based
[20] = Cytotoxicity against MDCK cells infected with influenza A virus California/7/2009(H1N1); format: toxicity, cell-based, Canis lupus familiaris; conditions: dog
[21] = Selectivity index, ratio of CC50 for cytotoxicity against MDCK cells infected with influenza A virus California/7/2009(H1N1) to EC50 for antiviral activity against influenza A virus California/7/2009(H1N1) infected in MDCK cells; format: toxicity, cell-based; conditions: dog; read-out: Ratio CC50/EC50
[22] = test system: Norovirus; experiment: Antiviral activity against Norovirus Genogroup 1 infected in human HG23 cells; format: functional, organism-based; conditions: Genogroup 1, HG23
[23] = Cytotoxicity against human HG23 cells infected with Norovirus Genogroup 1; format: toxicity, cell-based
[24] = Selectivity index, ratio of CC50 for cytotoxicity against human HG23 cells infected with Norovirus Genogroup 1 to EC50 for antiviral activity against Norovirus Genogroup 1 infected in human HG23 cells; format: toxicity, cell-based; conditions: read-out: Ratio CC50/EC50
[25] = test system: Zaire ebolavirus; experiment: Antiviral activity against Zaire ebolavirus infected in African green monkey Vero cells; format: functional, organism-based
[26] = Cytotoxicity against African green monkey Vero cells infected with Zaire ebolavirus; format: toxicity, cell-based; conditions: chlorocebus sabaeus
[27] = Selectivity index, ratio of CC50 for cytotoxicity against African green monkey Vero cells infected with Zaire ebolavirus to EC50 for antiviral activity against Zaire ebolavirus infected in African green monkey Vero cells; format: toxicity, cell-based; conditions: read-out: Ratio CC50/EC50
[28] = test system: Marburgvirus; experiment: Antiviral activity against Marburgvirus Angola infected in African green monkey Vero cells; format: functional, organism-based; conditions: Orthomarburgvirus
[29] = Cytotoxicity against African green monkey Vero cells infected with Marburgvirus Angola; format: toxicity, cell-based; conditions: chlorocebus sabaeus
[30] = Selectivity index, ratio of CC50 for cytotoxicity against African green monkey Vero cells infected with Marburgvirus Angola to EC50 for antiviral activity against Marburgvirus Angola infected in African green monkey Vero cells; format: toxicity, cell-based; conditions: read-out: Ratio CC50/EC50
[31] = test system: Hepatitis B virus; experiment: Antiviral activity against HBV ayw1 infected in human HepG2.2.15 cells; format: functional, organism-based; conditions: ayw1, HepG2.2.15
[32] = Cytotoxicity against human HepG2.2.15 cells; format: toxicity, cell-based, HepG2 2.2.15
[33] = Selectivity index, ratio of CC50 for cytotoxicity against human HepG2.2.15 cells to EC50 for antiviral activity against HBV ayw1 infected in human HepG2.2.15 cells; format: toxicity, cell-based; conditions: read-out: Ratio CC50/EC50
[34] = test system: Measles morbillivirus; experiment: Antiviral activity against Measles virus CC infected in African green monkey Vero 76 cells by visual analysis; format: functional, organism-based
[35] = Cytotoxicity against African green monkey Vero 76 cells infected with Measles virus CC by visual analysis; format: toxicity, cell-based; conditions: chlorocebus sabaeus
[36] = Selectivity index, ratio of CC50 for cytotoxicity against African green monkey Vero 76 cells infected with Measles virus CC by visual analysis to EC50 for antiviral activity against Measles virus CC infected in African green monkey Vero 76 cells by visual analysis; format: toxicity, cell-based; conditions: read-out: Ratio CC50/EC50
[37] = test system: Measles morbillivirus; experiment: Antiviral activity against Measles virus CC infected in African green monkey Vero 76 cells by neutral red dye based analysis; format: functional, organism-based
[38] = Cytotoxicity against African green monkey Vero 76 cells infected with Measles virus CC by neutral red dye based analysis; format: toxicity, cell-based; conditions: chlorocebus sabaeus
[39] = Selectivity index, ratio of CC50 for cytotoxicity against African green monkey Vero 76 cells by neutral red dye based analysis to EC50 for antiviral activity against Measles virus CC infected in African green monkey Vero 76 cells by neutral red dye based analysis; format: toxicity, cell-based; conditions: read-out: Ratio CC50/EC50

NC(=O)c1ncn([C@@H]2O[C@H](CO)[C@@H](O)[C@H]2O)n1 [RIBAVIRIN]
EC50 [1]: 49 µM | CC50 [2]: > 4090 µM | selectivity ratio [3]: > 83 | EC50 [4]: 53 µM | CC50 [5]: > 4090 µM | selectivity ratio [6]: > 77 | EC50 [7]: 27.8 µM | CC50 [8]: > 4090 µM | selectivity ratio [9]: > 150 | EC50 [10]: 31.1 µM | CC50 [11]: 3930 µM | selectivity ratio [12]: 130 | EC50 [13]: 45 µM | CC50 [14]: > 4090 µM | selectivity ratio [15]: > 91 | EC50 [16]: 36.4 µM | CC50 [17]: > 3560 µM | selectivity ratio [18]: > 98 | EC50 [19]: 21.9 µM | CC50 [20]: > 4100 µM | selectivity ratio [21]: > 670

C[C@@]1(O)[C@H](O)[C@@H](CO)O[C@H]1n1ccc(N)nc1=O
EC50 [22]: 1.23 µM | CC50 [23]: > 25 µM | selectivity ratio [24]: > 22

NC(=O)c1nc(F)cnc1O [FAVIPIRAVIR]
EC50 [25]: 24 µM | CC50 [26]: > 1000 µM | selectivity ratio [27]: > 43 | EC50 [28]: 167 µM | CC50 [29]: > 1000 µM | selectivity ratio [30]: > 6

Nc1ccn([C@@H]2CS[C@H](CO)O2)c(=O)n1 [LAMIVUDINE]
EC50 [31]: 0.02 µM | CC50 [32]: > 2 µM | selectivity ratio [33]: > 99

Nc1ccn([C@@H]2O[C@H](CO)[C@@H](O)[C@H]2F)c(=O)n1
EC50 [34]: 2.28 µM | CC50 [35]: 277 µM | selectivity ratio [36]: 121 | EC50 [37]: 3.59 µM | CC50 [38]: 249 µM | selectivity ratio [39]: 69

Source: ChEMBL document CHEMBL5252611, “2- and 3-Fluoro-3-deaza-1',6'-isoneplanocin: Synthesis and antiviral properties (including Ebola and Marburg)” (Bioorg Med Chem Lett, 2023)
